Experimental findings from patent US20250011296A1, “MODULATORS OF MOLECULAR TARGETS EXPRESSED IN METABOLIC AND INFLAMMATORY DISORDERS” (Ohio State Innovation Foundation, priority 2021, published 2025) are described below.

Entries after “also recorded” stand apart in the source; their conditions may differ. Where two headings read alike, the source gives them in different places.

Experiment [1] has as its system HbA1C (glycated hemoglobin) expression. Briefly: Larval diabetic zebrafish assay, Western blot of HbA1C. The format is in vivo. The note with it: diabetic zebrafish larvae, 10 μM. How it is done:
(§1) Following isolation, derivatization, and analysis of compounds 41-48 through the in vitro panel of assays, the mace natural products and licarin A derivatives were investigated in the larval diabetic zebrafish assay for potential antidiabetic activity. Western blot analysis of zebrafish expression levels for glycated hemoglobin, metabolic enzymes, and molecular targets NFκB and PPAR-γ was performed to evaluate potential lead improvement and to discover possible mechanisms of action.
(§2) Wild-type zebrafish were sorted into 24-well microplates with 10 fish per well for a four-phase treatment cycle. At 72 hpf, type 2 diabetes was induced by administering 0.5 mg/mL alloxan in fish water for percutaneous absorption. After three hours of alloxan treatment, phase two of the treatment cycle was initiated by administering 10 μM doses of natural product compounds 41-43 (FIG. 4) or derivatives 45-48 (FIG. 6) with 0.01% DMSO in system water. At 78 hpf, the incubation solution was changed to 10 mg/ml D-glucose for 30 minutes, followed by a phase-four rinse in fresh system w Following the four-phase treatment cycle, zebrafish treatment groups were snap frozen in microcentrifuge tubes on dry ice, stored overnight at −80° C., thawed, and homogenized with 2 μL PBS per animal. Following centrifugation (60 minutes at 4° C. and 17,000 rpm), protein content of the homogenate supernatant was determined using the Pierce BCA Protein Assay kit (Pierce Biotechnology). Homogenates were analyzed by Western blot with equal amounts of total protein (20 μg) in each sample and using 4×LDS loading buffer (NuPAGE Life Technologies). The immunoblot samples were heated at 95° C. for 5 minutes and loaded onto NuPAGE Bis-Tris 4-12% gradient SDS-PAGE gels.
(§3) Electrophoresis was performed with NuPAGE MES SDS Running Buffer and using the XCell SureLock Mini-Cell Electrophoresis System (Life Technologies). Proteins separated on the gel were transferred to a PVDF membrane using TBST buffer. The blots were blocked in 3% BSA in TBST and subsequently probed overnight with primary antibodies (1:1000 in 1% BSA in TBST) against each target of interest. Following TBST rinses, secondary HRP-conjugated antibodies (1:2000) were applied to the membrane for 60 minutes. The HRP conjugated antibodies were detected using SuperSignal West Femto chemiluminescent substrate (Pierce Biotechnology) and immunoblot images were captured using the luminometer and Lumi Analyst 3.0 software.
(§4) Band densities were determined using ImageJ Gel Analysis to determine expression levels of each protein of interest. Expression levels of HbA1C, PPAR-γ, and NFκB were organized into a bar graphs (FIG. 5) with band densities calculated in comparison to the housekeeping gene β-actin, normalized to the untreated diabetic group (B) of zebrafish. […].

Another experiment deals with T1, PPAR-γ (Homo sapiens, UniProt P37231).
T1 construct: endogenous in cells; host or cells: CCD-112CoN normal colon cells or HeLa cells (ATCC), nuclear extract
T1 sequence (P37231 1-505): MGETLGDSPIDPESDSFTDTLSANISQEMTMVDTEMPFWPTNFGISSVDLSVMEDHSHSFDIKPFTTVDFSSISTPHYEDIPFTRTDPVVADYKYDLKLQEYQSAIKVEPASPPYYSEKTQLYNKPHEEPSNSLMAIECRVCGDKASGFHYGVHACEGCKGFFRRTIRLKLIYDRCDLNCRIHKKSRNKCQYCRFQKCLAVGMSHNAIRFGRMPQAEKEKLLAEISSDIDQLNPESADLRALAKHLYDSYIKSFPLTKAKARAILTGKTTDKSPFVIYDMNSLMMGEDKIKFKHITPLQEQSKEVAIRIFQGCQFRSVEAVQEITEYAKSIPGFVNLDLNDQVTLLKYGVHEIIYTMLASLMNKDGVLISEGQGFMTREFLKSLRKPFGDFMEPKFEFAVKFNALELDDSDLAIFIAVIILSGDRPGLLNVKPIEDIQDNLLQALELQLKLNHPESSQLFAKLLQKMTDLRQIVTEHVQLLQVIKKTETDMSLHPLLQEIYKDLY
Briefly: PPAR-γ ELISA assay (PPAR-α,γ,δ Complete Transcription Factor Assay Kit; CCD-112CoN or Hela cells, nuclear extracts). The format is cell-based. As to the method:
To evaluate the ability of natural product extracts and compounds to induce specific binding of PPAR-γ transcription factor in nuclear extracts to immunosorbed peroxisome proliferator response element, the PPAR-α,γ,δ Complete Transcription Factor Assay Kit (Cayman Chemical Company) was used according to the kit protocol. 303 CCD-112CoN normal colon cells or Hela cells (ATCC) were treated with mace extracts or isolated compounds for 24 h, nuclear extracts were harvested using the NE-PER kit (Pierce Biotechnology), and protein content equilibrated using the Pierce BCA Protein Assay kit (Pierce Biotechnology). Specific binding was detected through quantification of absorptivity at 630 nm in a BioTek uQuant microplate reader (BioTek Instruments, Inc.). […] Licarin A derivatives 45-48 were screened through the panel of in vitro assays to evaluate their potential as antidiabetic compound leads. […] Methods for the assay were as described above.
A general note: In an ELISA, binding on a coated surface is turned into a signal by an enzyme label.

The target of another experiment is T2, NFκB (Homo sapiens, UniProt Q04206).
T2 construct: endogenous in cells; host or cells: HeLa cells (ATCC), nuclear extract
Briefly: NFκB assay (EZ-Detect Transcription Factor Assay kit; TNF-α-treated HeLa cells, nuclear extracts). The format is cell-based. As to the method:
To assess the ability of natural product extracts and compounds to inhibit the specific binding of activated NFκB transcription factor to the biotinylated consensus sequence, the EZ-Detect™ Transcription Factor Assay kit (Pierce Biotechnology) was used according to the kit manual and established protocol. HeLa cells (ATCC) were treated with each test sample and TNF-α, nuclear extracts harvested using the NE-PER kit (Pierce Biotechnology), and protein content equilibrated using the Pierce BCA Protein Assay kit (Pierce Biotechnology). Specific binding was detected through quantification of chemiluminescent signal in a plate reader (FLUOstar Optima, BMG Labtechnologies GmbH, Inc.).

A further experiment deals with GLUT-4 expression. Briefly: Larval diabetic zebrafish assay, Western blot of GLUT-4. The format is in vivo. The note with it: duplicate Western blot (FIG. 11), diabetic zebrafish larvae, 10 μM. How it is done: as §1
Wild-type zebrafish were sorted into 24-well microplates with 10 fish per well for a four-phase treatment cycle. At 72 hpf, type 2 diabetes was induced by administering 0.5 mg/mL alloxan in fish water for percutaneous absorption. After three hours of alloxan treatment, phase two of the treatment cycle was initiated by administering 10 μM doses of natural product compounds 41-43 (FIG. 4) or derivatives 45-48 (FIG. 6) with 0.01% DMSO in system water. […] Following centrifugation (60 minutes at 4° C. and 17,000 rpm), protein content of the homogenate supernatant was determined using the Pierce BCA Protein Assay kit (Pierce Biotechnology). Homogenates were analyzed by Western blot with equal amounts of total protein (20 μg) in each sample and using 4×LDS loading buffer (NuPAGE Life Technologies). […]
Electrophoresis was performed with NuPAGE MES SDS Running Buffer and using the XCell SureLock Mini-Cell Electrophoresis System (Life Technologies). […] The HRP conjugated antibodies were detected using SuperSignal West Femto chemiluminescent substrate (Pierce Biotechnology) and immunoblot images were captured using the luminometer and Lumi Analyst 3.0 software.
as §4
In general terms: In western blotting, separated proteins are transferred to a membrane and probed.

In another experiment the test system is PEPCK expression. Description: Larval diabetic zebrafish assay, Western blot of PEPCK. The format is in vivo. The note with it: duplicate Western blot (FIG. 10), diabetic zebrafish larvae, 10 μM. How it is done:
as §1, §2, §3, §4

The mark [2] stands for this setting: preliminary Western blot (FIG. 5), not in replicate.
The mark [3] stands for this setting: Table 20 summary, read-out: NFκBIC50.

T2 sequence (Q04206 whole entry): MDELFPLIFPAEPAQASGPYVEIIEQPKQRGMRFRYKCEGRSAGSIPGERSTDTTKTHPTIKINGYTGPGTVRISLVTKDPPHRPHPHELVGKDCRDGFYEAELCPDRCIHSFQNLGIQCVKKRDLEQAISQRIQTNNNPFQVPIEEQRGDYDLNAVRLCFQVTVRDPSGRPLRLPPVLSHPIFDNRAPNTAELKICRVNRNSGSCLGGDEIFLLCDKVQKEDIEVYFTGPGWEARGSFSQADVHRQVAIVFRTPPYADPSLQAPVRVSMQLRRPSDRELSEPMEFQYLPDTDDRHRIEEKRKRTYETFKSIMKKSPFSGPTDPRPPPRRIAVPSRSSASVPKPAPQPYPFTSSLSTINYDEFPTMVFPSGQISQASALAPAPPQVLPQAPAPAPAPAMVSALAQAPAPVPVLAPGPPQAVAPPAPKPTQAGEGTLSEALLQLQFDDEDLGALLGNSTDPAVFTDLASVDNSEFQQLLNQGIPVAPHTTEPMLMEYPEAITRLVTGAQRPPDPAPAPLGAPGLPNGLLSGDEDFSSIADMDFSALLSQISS

On to `C/C=C/c1cc(OC)c2c(c1)[C@H](C)[C@@H](c1ccc3c(c1)OCO3)O2` [Compound 41, licarin B], for which, in experiment [1] (setting [2]), the “HbA1C expression (band density)” value is recorded as “HbA1C levels even lower than those treated with the thiazolidinedione rosiglitazone; also recorded: excellent hypoglycemic effect”. Further, the PPAR-γ % activation on PPAR-γ (Table 14, isolates at 50 μg/mL) amounted to 45%; on PPAR-γ (Table 20 summary, 50 μg/mL) it was 45%. The IC50 on NFκB (setting [3]) was 0.479 µM; on NFκB (in vitro NFκB assay) it was 0.475 µM.

In the case of `C/C=C/c1cc(OC)c2c(c1)[C@H](C)[C@@H](c1ccc(O)c(OC)c1)O2` [Compound 42, licarin A], the figures for the “HbA1C expression (band density)” value in experiment [1] (duplicate Western blot (FIG. 7)) and in experiment [1] (setting [2]) were “most effective test samples for decreasing HbA1C” and “least effective of the three natural products at reducing HbA1C expression”, respectively. The “PPAR-γ activity, % as active/effective as positive control rosiglitazone” value at PPAR-γ (50 μg/mL) turned out to be 81%. The PPAR-γ % activation on PPAR-γ (Table 14, isolates at 50 μg/mL) came to 81%; on PPAR-γ (Table 20 summary, 50 μg/mL), 81%. Also, the “PPAR-γ activity in vitro” value on PPAR-γ (preliminary screening, 50 μg/mL) was “moderate PPAR-Y activity”. Further, the “GLUT-4 expression (band density)” value in the experiment on GLUT-4 expression is on record as “significantly increased capacities for glucose uptake”. For the same compound, the IC50 came to 0.0306 µM at NFκB (Table 13, tested at 50, 5, 0.5 and 0.05 μg/mL); 0.0306 µM at NFκB (setting [3]); 0.0306 µM against NFκB (in vitro NFκB assay). Further, the “PEPCK expression (band density)” value in the experiment with PEPCK expression was “retained low PEPCK expression”.
